Active and inactive are the calls of the source.
Assays:
[1] = target: Cytochrome P450 3A4 (Homo sapiens, UniProt P08684); settings: Potency;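 also: confirmatory qHTS run detecting inhibitors and substrates of CYP3A4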
[2] = cells; format: functional, cell-based
[3] = cells; format: functional, cell-based; remark: listed apart in the source
[4] = target: T1, Trace amine-associated receptor 1 (Homo sapiens, UniProt Q96RJ0); test: Counterscreen for agonists of the human trace amine associated receptor 1 (hTAAR1): Fluorescence-based cell-based high throughput dose response assay to identify hTAAR1 agonist that also desensitize TAAR1 receptor response.; format: functional
T1 sequence (Q96RJ0 whole entry): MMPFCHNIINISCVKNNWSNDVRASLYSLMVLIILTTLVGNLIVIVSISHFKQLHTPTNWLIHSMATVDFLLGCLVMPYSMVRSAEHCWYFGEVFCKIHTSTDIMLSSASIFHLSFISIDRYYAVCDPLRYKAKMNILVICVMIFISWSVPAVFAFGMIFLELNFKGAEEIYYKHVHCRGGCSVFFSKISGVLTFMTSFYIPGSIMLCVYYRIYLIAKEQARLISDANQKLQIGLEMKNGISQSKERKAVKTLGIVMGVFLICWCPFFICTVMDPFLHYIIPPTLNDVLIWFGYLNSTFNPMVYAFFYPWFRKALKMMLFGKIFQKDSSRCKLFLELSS

[5] = target: T1, Trace amine-associated receptor 1; test: Fluorescence-based cell-based high throughput dose response assay to identify agonists of the human trace amine associated receptor 1 (TAAR1).; format: functional
[6] = THP-1 cell cytotoxicity, dose response, cytotoxicity control for non-replicating M. tuberculosis project (AID 489025); format: functional
[7] = cells; format: functional
[8] = HEK-293T cell viability reduction – luminescence, B-cell screen hits, cytotoxicity control for BCR NF-kB inhibitor project, dose response (AID 489021); format: functional, cell-based;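 also: HEK-293T cells carrying an NF-kB luciferase reporter; cells exposed to compound for about 14 hours before viability readout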
[9] = system: H4; test: Luminescence Cell-Based Dose Response HTS to Identify Activators of 5'UTR Stem-Loop Driven Prion Protein mRNA Translation in H4 Neuroglioblastoma Cells. [Related pubchem assays: 1829 (Project Summary), 1814 (Primary HTS)]; format: functional; settings: Homo sapiens
[10] = Luminescence Cell-Based Dose Response HTS to Identify Activators of Luciferase Translation or Activity in H4 […] Cells. [Related pubchem assays: 1829 (Project Summary), 1814 (Primary HTS)]; format: functional
[11] = Luminescence Cell-Based Dose Confirmation HTS to Identify Activators of 5'UTR Stem-Loop Driven Alpha-Synuclein mRNA Translation in H4 Neuroglioblastoma Cells. [Related pubchem assays: 1829 (Project Summary), 1814 (Primary HTS)]; format: functional
[12] = target: T2, DNA repair and recombination protein RAD54-like (Homo sapiens, UniProt Q92698); test: RAD54 Holliday junction migration blockers – biochemical, fluorescence, cherry-picked samples, dose series, confirmation (AID 651657); format: functional
T2 sequence (Q92698 whole entry): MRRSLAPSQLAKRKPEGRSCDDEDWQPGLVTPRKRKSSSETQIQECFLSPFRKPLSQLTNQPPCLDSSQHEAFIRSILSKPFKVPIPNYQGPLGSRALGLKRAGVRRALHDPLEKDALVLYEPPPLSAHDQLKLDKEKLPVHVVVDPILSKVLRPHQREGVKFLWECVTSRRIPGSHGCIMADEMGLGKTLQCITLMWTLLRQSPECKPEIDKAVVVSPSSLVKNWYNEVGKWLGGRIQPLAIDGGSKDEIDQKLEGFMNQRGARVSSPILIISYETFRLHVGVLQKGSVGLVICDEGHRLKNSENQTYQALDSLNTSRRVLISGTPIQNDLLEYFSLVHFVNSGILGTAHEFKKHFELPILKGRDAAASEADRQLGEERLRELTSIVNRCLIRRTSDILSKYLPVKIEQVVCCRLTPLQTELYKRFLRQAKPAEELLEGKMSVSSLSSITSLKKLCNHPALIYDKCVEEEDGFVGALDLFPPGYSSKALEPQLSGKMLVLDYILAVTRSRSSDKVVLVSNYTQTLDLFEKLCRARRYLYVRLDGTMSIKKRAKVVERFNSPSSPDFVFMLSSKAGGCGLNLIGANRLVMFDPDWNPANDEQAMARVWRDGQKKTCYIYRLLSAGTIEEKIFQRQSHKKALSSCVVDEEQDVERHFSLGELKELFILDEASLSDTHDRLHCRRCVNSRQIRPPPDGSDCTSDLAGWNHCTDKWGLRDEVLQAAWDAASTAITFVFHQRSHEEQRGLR

[13] = blockers of HIV-1 envelope-mediated cell-cell fusion – cherry-pick, dose response (AID 652057); format: functional, cell-based
[14] = HIV-1 AD8 envelope cell-cell fusion blockers – cherry-pick, dose response (AID 652062); format: functional, cell-based;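 also: luciferase signal from cell-cell fusion driven by HIV-1 clade B AD8 Env; potency is for inhibitors of fusion seen as a drop in luminescence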
[15] = blockers of HIV-1 ZM109 envelope-driven cell-cell fusion – HeLa effector, CEM target cells, luciferase, cherry-pick, dose response (AID 652058); format: functional, cell-based;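 also: luciferase signal from HIV-1 Env mediated cell-cell fusion of effector and target cells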
[16] = off-target signal loss in HeLa-CEM21 co-culture – HeLa F-luc CTL cells, cherry-picked, counter-screen for HIV-1 Env fusion inhibitor project, dose response (AID 652040); format: functional, cell-based;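 also: potency for signal decrease marking cytotoxic or nonspecific inhibition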
[17] = OVCAR8 cell viability loss – plate reader, dry powder samples, PAX8 project, dose response (AID 743197); format: functional, cell-based; settings: OVCAR-8
[18] = OVCAR-3 cell viability loss – plate reader, dry powder samples, PAX8 inhibitor project, dose response (AID 743044); format: functional, cell-based
[19] = IGROV1 cell killing – plate reader, dry powder samples, PAX8 inhibitor project, dose response (AID 743043); format: functional, cell-based; settings: IGROV-1
[20] = target: Paired box protein Pax-8 (Homo sapiens, UniProt Q06710); test: PAX8 transcriptional activity inhibition in RMG-I – RMG-I cells, luciferase, cherry-pick, dose response (AID 687027); format: functional, cell-based;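 also: luciferase reporter driven by Pax8 target thyroperoxidase promoter measured by SteadyGlo luminescence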
Chain of Paired box protein Pax-8 (Q06710 whole entry): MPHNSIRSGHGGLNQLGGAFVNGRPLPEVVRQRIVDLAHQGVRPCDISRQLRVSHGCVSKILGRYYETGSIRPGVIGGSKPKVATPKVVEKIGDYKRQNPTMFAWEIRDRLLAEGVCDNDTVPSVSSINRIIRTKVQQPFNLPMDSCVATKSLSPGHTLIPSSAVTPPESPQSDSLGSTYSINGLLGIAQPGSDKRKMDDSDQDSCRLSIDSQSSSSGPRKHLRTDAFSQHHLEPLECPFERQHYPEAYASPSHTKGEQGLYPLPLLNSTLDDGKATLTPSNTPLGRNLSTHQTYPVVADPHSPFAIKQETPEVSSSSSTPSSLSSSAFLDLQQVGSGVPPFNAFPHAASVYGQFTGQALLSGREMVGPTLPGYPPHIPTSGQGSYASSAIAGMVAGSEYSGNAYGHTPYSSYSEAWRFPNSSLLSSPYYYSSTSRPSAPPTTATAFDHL

Chain of Cytochrome P450 3A4 (P08684 whole entry): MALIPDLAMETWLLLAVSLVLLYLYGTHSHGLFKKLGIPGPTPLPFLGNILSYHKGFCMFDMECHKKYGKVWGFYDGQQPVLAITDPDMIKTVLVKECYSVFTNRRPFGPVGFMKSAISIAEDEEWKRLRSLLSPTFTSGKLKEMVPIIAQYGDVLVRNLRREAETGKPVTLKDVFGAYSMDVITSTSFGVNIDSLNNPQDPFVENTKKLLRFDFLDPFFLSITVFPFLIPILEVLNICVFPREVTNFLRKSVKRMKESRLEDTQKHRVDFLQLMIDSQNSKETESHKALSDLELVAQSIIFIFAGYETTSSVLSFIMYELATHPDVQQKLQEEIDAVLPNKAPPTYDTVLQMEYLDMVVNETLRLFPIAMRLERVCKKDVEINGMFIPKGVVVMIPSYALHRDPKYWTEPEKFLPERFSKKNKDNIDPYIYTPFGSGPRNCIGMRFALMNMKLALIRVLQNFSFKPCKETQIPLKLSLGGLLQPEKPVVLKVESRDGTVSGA

For `COc1cc2cc[n+]3cc4c(OC)c(OC)ccc4cc3c2cc1OC`, the AC50 [1] was 20 µM (inconclusive).

In the case of `Cc1ccsc1/C=N/NC(=O)Cn1nc(C)c([N+](=O)[O-])c1C`, the EC50 [2] is reported as > 29.9 µM (inactive), the IC50 [3] is reported as > 29.9 µM (inactive) and the IC50 [4] is reported as 5.81 µM (active). For the same compound, the EC50 [5] was 3.79 µM (active).

With `O=C(CCn1c(=S)[nH]c2cc3c(cc2c1=O)OCO3)NCCc1ccccc1Cl` the EC50 [2] was > 29.9 µM (inactive), the IC50 [3] was > 29.9 µM (inactive) and the IC50 [4] was 9.24 µM (active). The EC50 [5] was 7.04 µM (active).

With `COc1ccc(-c2cc(=O)c3c(O)c(OC)c(OC)c(OC)c3o2)cc1OC` [5-DEMETHYLNOBILETIN] the AC50 [1] was 10 µM (inconclusive).

In the case of `CCOC(=O)CNC(=O)CNC(=O)c1nn(-c2ccc(OC)c(Cl)c2)c(=O)c2ccccc12`, the CC50 [6] is reported as > 40 µM (active) and the IC50 [7] is reported as 17.8 µM (active).

In the case of `CC1=C(C(=O)OCc2ccccc2)C(c2ccc(C(F)(F)F)cc2)NC(=O)N1CCCCCC(=O)O` (stereo unspecified), the AC50 [1] is reported as 15.8 µM (inconclusive).

For `CCn1c(=O)cc(OCC(=O)Nc2ccc(OC)c(OC)c2)c2ccccc21`, the IC50 [8] was > 80 µM (inactive).

With `CCN(CC)CCCNC(=O)c1ccc2c3n(nc2c1)-c1ccc(Cl)cc1CO3` the EC50 [9] was 0.334 µM (active), the EC50 [10] was 3.59 µM (active) and the EC50 [11] was 101 µM (active). The AC50 [12] was 44.5 µM (active).

With `CCN1C(=O)[C@H]2[C@@H](c3ccc(C)cc3)N3C(=O)N(c4cccc(Br)c4)C(=O)[C@@]3(CC)[C@H]2C1=O` the AC50 [13] was 4.44 µM (active), the AC50 [14] was 1.18 µM (active) and the AC50 [15] was 3.01 µM (active). The AC50 [16] was 6.04 µM (active).

In the case of `C[C@@H]1CN([C@H](C)CO)C(=O)c2cc(NC(=O)Nc3ccc(C(F)(F)F)cc3)ccc2O[C@@H](C)CCCCO[C@@H]1CN(C)Cc1ccc2c(c1)OCO2`, the AC50 [17] is reported as 26.4 µM (active), the AC50 [18] is reported as 25.1 µM (active) and the AC50 [19] is reported as 28.4 µM (active). For the same compound, the AC50 [20] was 5.56 µM (active).

With `Cc1ccc(C(=O)N2CCCC(c3ccc(Cl)cc3)=N2)cc1` the IC50 [8] was > 80 µM (inactive).

In the case of `Nc1c(NCCc2ccccc2)c2ccccc2oc1=O`, the EC50 [2] is reported as > 29.9 µM (inactive), the IC50 [3] is reported as > 29.9 µM (inactive) and the IC50 [4] is reported as 6.4 µM (active). For the same compound, the EC50 [5] was 1.86 µM (active).
